Results reported in ChEMBL document CHEMBL1154505, “Nakijiquinones E and F, new dimeric sesquiterpenoid quinones from marine sponge” (Bioorg Med Chem, 2009).

Tests used:
Type in all cases: functional, cell-based
P388 = experiment: Cytotoxicity against mouse P388 cells
L1210 = experiment: Cytotoxicity against mouse L1210 cells
KB = experiment: Cytotoxicity against human KB cells

Measured: IC50

C=C1CCC[C@H]2[C@](C)(Cc3cc(C(=O)OC)c(O)c(NC4=CC(=O)C(O)=C(C[C@]5(C)[C@@H](C)CC[C@]6(C)C(C)=CCC[C@@H]56)C4=O)c3O)[C@@H](C)CC[C@]12C [NAKIJIQUINONE E]
> 10 mg/L: all assays above

COC(=O)c1cc(C[C@]2(C)[C@@H](C)CC[C@]3(C)C(C)=CCC[C@@H]23)c(O)c(NC2=CC(=O)C(O)=C(C[C@]3(C)[C@@H](C)CC[C@]4(C)C(C)=CCC[C@@H]34)C2=O)c1O [NAKIJIQUINONE F]
> 10 mg/L: all assays above
